# Laboratory results: PubChem BioAssay AID651771 (Broad Institute, 2012)
# “And” between values parts separate entries of the source, which are not always exact repeats. Equal entries are not always repeated. Inconclusive results are not listed.
# Test system: SK-MEL-5 DCT mRNA qPCR, delta-delta-Ct, overnight
# Test: DCT transcript decrease in melanoma cells – cell-based, SK-MEL-5, RT-qPCR, dry powder samples, orthogonal assay for MITF inhibitor project, dose response (AID 651771)
row,SMILES,AC40
1,NC1=C(NS(=O)(=O)c2ccccc2)C(=O)c2ccccc2C1=O,3020 nM
2,O=C(NC1=C(Cl)C(=O)c2ccccc2C1=O)c1ccccc1,336 nM
3,O=C1C(Nc2ccc(Cl)cc2)=C(N2CCCC2)C(=O)c2ccccc21,9530 nM
4,Cc1nc2ccccc2n1/N=C/c1ccc([N+](=O)[O-])s1,1540 nM
5,COC1=C(Nc2ccccc2)C(=O)c2ccccc2C1=O,838 nM
6,CC(C)N1CCN(C2=C(Nc3ccc(F)cc3)C(=O)c3ccccc3C2=O)CC1,2900 nM
7,COC1=C(NS(=O)(=O)c2ccc(Br)cc2)C(=O)c2ccccc2C1=O,8650 nM
8,COc1ccc(NC2=C(N3CCCCC3)C(=O)c3ccccc3C2=O)cc1,12800 nM
9,O=C1C=C(Nc2ccccc2)C(=O)c2ccccc21,302 nM and 325 nM
10,NC1=C(NC(=O)c2ccccc2)C(=O)c2ccccc2C1=O,1730 nM
11,NS(=O)(=O)c1ccc(NC2=CC(=O)c3ccccc3C2=O)cc1,55.5 nM
12,CN1CCN(C2=C(NS(=O)(=O)c3ccc(Br)s3)C(=O)c3ccccc3C2=O)CC1,1680 nM
13,CCN1CCN(C2=C(Nc3ccc(F)cc3F)C(=O)c3ccccc3C2=O)CC1,4780 nM
14,CCN1CCN(C2=C(NC(=O)c3ccccc3)C(=O)c3ccccc3C2=O)CC1,884 nM
15,Cc1ccc(NC2=CC(=O)c3ccccc3C2=O)cc1,277 nM
16,NC1=CC(=O)c2ccccc2C1=O,966 nM
17,NC1=C(NS(=O)(=O)c2ccc(Br)cc2)C(=O)c2ccccc2C1=O,12800 nM
18,O=C1C=C(NS(=O)(=O)c2ccc(Br)cc2)C(=O)c2ccccc21,7250 nM
19,O=C1C=C(NS(=O)(=O)c2cccs2)C(=O)c2ccccc21,4640 nM
20,CC(C)N1CCN(C2=C(Nc3ccc(F)cc3F)C(=O)c3ccccc3C2=O)CC1,3670 nM
21,NC1=C(NS(=O)(=O)c2cccs2)C(=O)c2ccccc2C1=O,2010 nM
22,C=CCNC1=C(Cl)C(=O)c2ccccc2C1=O,1000 nM
23,O=C1C=C(NS(=O)(=O)c2ccccc2)C(=O)c2ccccc21,4060 nM
24,O=C1C(Nc2ccccc2)=C(c2ccccc2)C(=O)c2ccccc21,10400 nM
25,COC1=C(NS(=O)(=O)c2cccs2)C(=O)c2ccccc2C1=O,9010 nM
26,CCN1CCN(C2=C(NS(=O)(=O)c3ccc(Br)cc3)C(=O)c3ccccc3C2=O)CC1,3380 nM
27,O=C1C=C(Nc2ccc([N+](=O)[O-])c(C(F)(F)F)c2)C(=O)c2ccccc21,1050 nM
28,O=C1C(Nc2ccc(Br)cc2)=C(N2CCCCC2)C(=O)c2ccccc21,12600 nM
